From patent US9108930B2, “N1- and N2-carbamoyl-1,2,3-triazole serine hydrolase inhibitors and methods” (The Scripps Research Institute, priority 2011, dated 2015)

Experiments:
ABHD6 = target: T1, ABHD6 (Mus musculus, UniProt Q8R2Y0); assay: ABPP-SILAM of brain tissue from treated mice; type: in vivo; design: from tissue; host or cells: thioglycolate-elicited peritoneal macrophages of mice; conditions: may not represent actual changes
T1 sequence (Q8R2Y0 1-336): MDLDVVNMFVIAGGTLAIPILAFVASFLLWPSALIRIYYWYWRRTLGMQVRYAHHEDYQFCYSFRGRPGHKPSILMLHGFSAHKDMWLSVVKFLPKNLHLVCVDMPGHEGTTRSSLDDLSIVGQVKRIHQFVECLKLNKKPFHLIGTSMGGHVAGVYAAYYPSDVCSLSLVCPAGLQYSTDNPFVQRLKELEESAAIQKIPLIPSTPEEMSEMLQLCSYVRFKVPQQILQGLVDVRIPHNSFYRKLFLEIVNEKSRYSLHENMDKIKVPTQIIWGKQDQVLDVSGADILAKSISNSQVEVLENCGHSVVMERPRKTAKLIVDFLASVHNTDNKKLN
Description: The potency and selectivity of 1,2,3-triazole ureas in vivo also was investigated. Mice were treated with the APEH inhibitor AA74-1 at various doses (0.2-1.6 mg/kg; PEG300 or 18:1:1 saline/ethanol/emulphor intraperitoneally) and sacrificed after 4 h. Brains and hearts were removed, homogenized, and analyzed by gel-based competitive ABPP. […] Finally, the possibility of extending ABPP-SILAC for the characterization of inhibitor selectivity in vivo was explored by taking advantage of recently described protocols for stable isotope labeling in mammals (SILAM). In this approach, brain tissues from vehicle- and AA74-1-treated mice were separately mixed with equivalent amounts of brain tissue from ‘heavy’ amino acid-fed mice, and the samples were then labeled with FP-biotin, enriched by avidin chromatography, analyzed by LC-MS, and SH activities quantified by measuring the ratio-of-ratios for observed peptide signals. […] The ratio-of-ratio signals for APEH indicated greater than 90% inhibition of this enzyme in AA74-1-treated animals (FIG. 5b, top), consistent with average spectral count values (14 and 1 spectral counts for APEH in vehicle-treated versus AA74-1-treated mice, respectively; FIG. 5b, bottom). […]
C57BL6 mice were labeled with ^15N. […] Brains were determined to be 95% labeled by mass spectrometry with ^15N and used for quantitative analysis. […]

ACHE = target: T2, ACHE (Mus musculus, UniProt P21836); assay: ABPP-SILAM of brain tissue from treated mice; type: in vivo; conditions: mouse brain proteome of treated mice
T2 construct: from tissue; host or cells: mouse brain
T2 sequence (P21836 32-614): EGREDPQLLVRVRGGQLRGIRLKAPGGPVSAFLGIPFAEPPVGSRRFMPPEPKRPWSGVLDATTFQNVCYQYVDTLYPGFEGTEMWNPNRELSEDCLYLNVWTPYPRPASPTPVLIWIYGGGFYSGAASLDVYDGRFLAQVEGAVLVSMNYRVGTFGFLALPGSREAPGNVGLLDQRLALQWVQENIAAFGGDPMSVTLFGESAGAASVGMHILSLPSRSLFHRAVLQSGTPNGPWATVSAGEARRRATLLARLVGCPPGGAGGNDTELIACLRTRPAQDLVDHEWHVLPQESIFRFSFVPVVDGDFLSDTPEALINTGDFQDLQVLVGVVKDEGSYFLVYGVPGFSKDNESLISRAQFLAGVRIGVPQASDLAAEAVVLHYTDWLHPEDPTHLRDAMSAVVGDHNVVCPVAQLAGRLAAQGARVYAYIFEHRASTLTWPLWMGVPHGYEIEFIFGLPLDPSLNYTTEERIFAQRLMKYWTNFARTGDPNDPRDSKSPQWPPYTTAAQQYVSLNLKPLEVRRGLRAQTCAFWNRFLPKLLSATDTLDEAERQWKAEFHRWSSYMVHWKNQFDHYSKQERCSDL
Description: (§1) The potency and selectivity of 1,2,3-triazole ureas in vivo also was investigated. Mice were treated with the APEH inhibitor AA74-1 at various doses (0.2-1.6 mg/kg; PEG300 or 18:1:1 saline/ethanol/emulphor intraperitoneally) and sacrificed after 4 h. Brains and hearts were removed, homogenized, and analyzed by gel-based competitive ABPP. […] Finally, the possibility of extending ABPP-SILAC for the characterization of inhibitor selectivity in vivo was explored by taking advantage of recently described protocols for stable isotope labeling in mammals (SILAM). In this approach, brain tissues from vehicle- and AA74-1-treated mice were separately mixed with equivalent amounts of brain tissue from ‘heavy’ amino acid-fed mice, and the samples were then labeled with FP-biotin, enriched by avidin chromatography, analyzed by LC-MS, and SH activities quantified by measuring the ratio-of-ratios for observed peptide signals. […] The ratio-of-ratio signals for APEH indicated greater than 90% inhibition of this enzyme in AA74-1-treated animals (FIG. 5b, top), consistent with average spectral count values (14 and 1 spectral counts for APEH in vehicle-treated versus AA74-1-treated mice, respectively; FIG. 5b, bottom). […] ACHE, an enzyme that is targeted by other reported NHU inhibitors, was not inhibited by AA74-1 in either mouse brain (FIG. 5b) or transfected cell (FIG. 16) proteomes.
(§2) C57BL6 mice were labeled with ^15N. Briefly, each mouse was fed an ^15N-labeled protein diet starting immediately after weaning which continued for the next 10 weeks. The ^15N-labeled diet was generated by combining spirulina biomass ^15N-labeled (Cambridge Isotopes) with protein-free diet powder (Harlan TD 93328) in a 1:2 (wt/wt) ratio and an appropriate amount of H2O to generate a dough. This dough is then cut into 2-cm thick pellets and dried at 60° C. for 2-4 h and then at 35° C. overnight using an Excalibur food dehydrator. These ^15N-labeled food pellets are then used to replace normal chow. […] Brains were determined to be 95% labeled by mass spectrometry with ^15N and used for quantitative analysis. […]

PREPL = target: T3, PREPL (Mus musculus, UniProt Q8C167); assay: ABPP-SILAM of brain tissue from treated mice; type: in vivo; conditions: may not represent actual changes
T3 construct: from tissue; host or cells: mouse brain
T3 sequence (Q8C167 whole entry): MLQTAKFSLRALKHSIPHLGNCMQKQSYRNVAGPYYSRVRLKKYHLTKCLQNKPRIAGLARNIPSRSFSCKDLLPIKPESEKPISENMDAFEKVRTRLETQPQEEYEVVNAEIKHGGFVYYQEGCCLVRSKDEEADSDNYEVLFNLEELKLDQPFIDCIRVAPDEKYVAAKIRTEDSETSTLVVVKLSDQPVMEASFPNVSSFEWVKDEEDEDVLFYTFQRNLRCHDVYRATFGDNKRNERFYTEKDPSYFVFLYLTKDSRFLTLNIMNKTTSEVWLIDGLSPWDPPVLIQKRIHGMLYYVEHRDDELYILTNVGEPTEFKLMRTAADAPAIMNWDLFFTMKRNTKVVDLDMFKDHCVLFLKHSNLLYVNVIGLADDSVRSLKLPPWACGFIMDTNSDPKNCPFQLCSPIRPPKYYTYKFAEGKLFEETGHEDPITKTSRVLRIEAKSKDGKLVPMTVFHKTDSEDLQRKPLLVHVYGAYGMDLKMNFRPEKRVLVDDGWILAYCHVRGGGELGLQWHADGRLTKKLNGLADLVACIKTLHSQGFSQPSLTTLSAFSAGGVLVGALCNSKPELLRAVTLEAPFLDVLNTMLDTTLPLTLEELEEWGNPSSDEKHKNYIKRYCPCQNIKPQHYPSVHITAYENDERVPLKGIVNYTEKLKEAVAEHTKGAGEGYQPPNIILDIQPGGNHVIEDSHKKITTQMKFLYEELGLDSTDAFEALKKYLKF
Description: as §1, §2

DAGLB [1] = target: T4, DAGLB (Mus musculus, UniProt Q91WC9); assay: In vivo DAGLB inactivation in peritoneal macrophages, gel-based competitive ABPP using HT01; design: from tissue; host or cells: thioglycolate-elicited peritoneal macrophages of treated mice; conditions: for dose (as low as) giving complete inactivation of DAGLB in peritoneal macrophages: about 4 hours, doses about 10 to about 0.1 mg/kg
T4 sequence (Q91WC9 1-669): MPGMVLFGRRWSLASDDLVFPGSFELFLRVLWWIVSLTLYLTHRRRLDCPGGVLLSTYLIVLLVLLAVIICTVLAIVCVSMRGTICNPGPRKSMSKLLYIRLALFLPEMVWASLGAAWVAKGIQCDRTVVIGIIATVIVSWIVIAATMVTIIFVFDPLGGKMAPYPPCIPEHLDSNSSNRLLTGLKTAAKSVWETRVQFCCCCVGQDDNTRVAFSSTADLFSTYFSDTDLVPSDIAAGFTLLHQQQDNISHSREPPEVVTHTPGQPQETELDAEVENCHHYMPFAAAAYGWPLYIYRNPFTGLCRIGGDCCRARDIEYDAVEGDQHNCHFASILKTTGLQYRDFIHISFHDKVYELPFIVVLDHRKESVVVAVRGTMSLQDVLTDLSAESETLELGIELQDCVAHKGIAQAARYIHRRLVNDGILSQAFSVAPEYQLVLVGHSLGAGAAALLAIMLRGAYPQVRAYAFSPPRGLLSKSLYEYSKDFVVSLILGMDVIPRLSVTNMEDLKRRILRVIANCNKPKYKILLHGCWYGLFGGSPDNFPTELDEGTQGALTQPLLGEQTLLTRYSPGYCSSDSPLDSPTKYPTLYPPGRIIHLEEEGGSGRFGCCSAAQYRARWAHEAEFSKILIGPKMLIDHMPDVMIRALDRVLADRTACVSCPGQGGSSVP

DAGLB [2] = target: T4, DAGLB; assay: In situ inhibition in Neuro2A cells, competitive ABPP with HT-01; type: cell-based; design: from tissue; host or cells: thioglycolate-elicited peritoneal macrophages of treated mice; conditions: 4 hours
Description: For gel-based competitive ABPP studies, proteomes from cells treated in situ with inhibitor for 4 h at 37° C. at the indicated concentrations (n=3) were labeled with HT-01 (1 μM) for 30 min at 37° C. After quenching, SDS-PAGE, and in-gel visualization, the percentage of enzyme activity remaining was determined by measuring the integrated optical intensity of the bands using IMAGER® software. For LC-MS substrate assays, the percentage of enzyme activity remaining was determined by comparing the specific activity (amount of 2-AG formed per min per mg of proteome) of inhibitor with DMSO-treated samples. The IC50 values were determined from a dose-response curve generated using GraphPad PRISM® software.

Structure (SMILES) | partial inhibition of ABHD6 suggested by ratio-of-ratio signals (ABHD6) | ACHE inhibition in mouse brain (ACHE) | partial inhibition of PREPL suggested by ratio-of-ratio signals (PREPL) | time to complete inhibition of DAGLB (DAGLB [1]; 5 mg/kg, i.p.) | dose (as low as) giving complete inactivation of DAGLB in peritoneal macrophages (DAGLB [1]; i.p.) | inhibition at 5 mg/kg (DAGLB [1]; mouse, ip, read-out: persistent inhibition of DAGLB after 16 hours) | IC50 (DAGLB [2]) | duration / time-course of DAGLB inhibition (DAGLB [1]; 5 mg/kg, i.p., about 1 to 16 hours) | activity against DAGLB in Neuro2A cells (DAGLB [2])
CC(C)CC(O)(CC(C)C)c1cnn(C(=O)N2CCCC2)n1 [AA74-1] | 50-60% | not inhibited | 50-60% |  |  |  |  |  | 
O=C(N1CCCCC1Cc1ccccc1)n1cc(-c2ccc(-c3ccccc3)cc2)nn1 (stereo not shown) [KT109] |  |  |  | within the first hour | 0.5 mg/kg | ~90% | 14 nM |  | 
COc1ccc(-c2ccc(-c3cn(C(=O)N4CCCCC4c4ccccc4)nn3)cc2)cc1 (stereo not shown) [KT195] |  |  |  |  | > 10 mg/kg |  |  | no evidence of DAGLB inhibition during the entire time-course of treatment | negligible activity against DAGLB
